Results on one compound are retold here after PMC5138414, “Structural Basis for Redox Regulation of Cytoplasmic and Chloroplastic Triosephosphate Isomerases from Arabidopsis thaliana” (Frontiers in Plant Science, 2016).

Each structure is given as a SMILES string.

What all share (experiment): residual activity after MMTS incubation, coupled assay at […] nm
What all share (assay type): biochemical

Assay [1] addresses T1, cTPI (Arabidopsis thaliana, UniProt P48491, C218S).
T1 construct: gene CTIMC; homodimer
T1 sequence (P48491 1-254 C218S): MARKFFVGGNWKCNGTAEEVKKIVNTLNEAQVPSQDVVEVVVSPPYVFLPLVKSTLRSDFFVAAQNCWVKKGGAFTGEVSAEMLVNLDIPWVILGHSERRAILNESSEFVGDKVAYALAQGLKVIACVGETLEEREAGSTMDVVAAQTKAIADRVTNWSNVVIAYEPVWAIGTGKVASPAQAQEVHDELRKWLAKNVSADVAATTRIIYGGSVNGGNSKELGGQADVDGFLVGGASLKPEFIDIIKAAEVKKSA
Particulars: read-out: MMTS concentration necessary to inhibit 50%.

In assay [2] the target is T2, cTPI (Arabidopsis thaliana, UniProt P48491).
T2 construct: gene CTIMC; homodimer
T2 sequence (P48491 whole entry): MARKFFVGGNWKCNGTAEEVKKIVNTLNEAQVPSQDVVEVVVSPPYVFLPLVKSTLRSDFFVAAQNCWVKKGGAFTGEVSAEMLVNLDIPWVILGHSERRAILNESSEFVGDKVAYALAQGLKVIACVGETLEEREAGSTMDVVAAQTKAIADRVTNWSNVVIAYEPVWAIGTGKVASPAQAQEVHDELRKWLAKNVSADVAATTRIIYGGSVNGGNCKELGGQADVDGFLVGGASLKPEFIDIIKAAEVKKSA
Particulars: covalent (C13, C218); 3 h incubation at room temperature, 0.184 nM enzyme, TEA pH 7.4, 10 mM EDTA.

For assay [3], the target named is T3, cTPI (Arabidopsis thaliana, UniProt P48491, C13S).
T3 construct: gene CTIMC; homodimer
T3 sequence (P48491 whole entry C13S): as the sequence (P48491 whole entry) above, with C13S counted along it

For assay [4], the target named is T4, pdTPI (Arabidopsis thaliana, UniProt Q9SKP6).
T4 construct: gene TIM; homodimer
Particulars: read-out: 50% of enzymatic activity.
Target sequence in this assay (Q9SKP6 60-315): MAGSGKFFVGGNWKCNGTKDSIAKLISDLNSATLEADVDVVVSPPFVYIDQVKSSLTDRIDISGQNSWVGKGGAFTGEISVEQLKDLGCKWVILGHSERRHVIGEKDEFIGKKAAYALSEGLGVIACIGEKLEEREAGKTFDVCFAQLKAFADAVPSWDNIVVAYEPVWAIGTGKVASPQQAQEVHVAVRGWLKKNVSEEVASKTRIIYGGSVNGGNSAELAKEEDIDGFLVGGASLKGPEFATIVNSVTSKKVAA

Assay [5] has as its target T4, pdTPI. Particulars: covalent (cysteine); 3 h incubation at room temperature, 0.184 nM enzyme, TEA pH 7.4, 10 mM EDTA; MMTS 0-50 µM.
Target sequence in this assay (Q9SKP6 60-315 C148S): as the sequence (Q9SKP6 60-315) above, with C89S counted along it

Turning to `CSS(C)(=O)=O` [MMTS], the IC50 at cTPI [1] is 125 nM; at pdTPI [4], over 10000 nM. Besides, the “% decrease of activity at 31.25 nM” value on cTPI [2] is reported as 90%. For the same compound, the remaining activity at 0.125 µM at cTPI [3] came to 70%. In addition, the “% activity remaining (dose curve)” value on pdTPI [5] is given as “Mutation pdTPI-C89S is more susceptible to MMTS inhibition”.

As usually defined, the remaining activity is the share of the control activity or signal that is left under treatment. A higher remaining activity goes with much activity left.
